Earlier results on 5 compounds are cited in US9399044B2, “Antimicrobial cationic polyamines” (International Business Machines Corporation, priority 2014, dated 2016).

For the data set, the system named is mouse. The following applies: commercially available compounds, source NIH.
Take `CC[C@@H](CO)NCCN[C@@H](CC)CO` [Ethambutol]: the “Mouse Intravenous LD50” value is reported as 240 mg/kg.

With `CN(Cc1cnc2nc(N)nc(N)c2n1)c1ccc(C(=O)N[C@@H](CCC(=O)O)C(=O)O)cc1` [Methotrexate], the “Mouse Intravenous LD50” value was 65 mg/kg. Take `CN1CCCC1c1cccnc1` (centres unmarked) [Nicotine]: the “Mouse Intravenous LD50” value was 0.3 mg/kg. For `CO[C@H]1/C=C/O[C@@]2(C)Oc3c(C)c(O)c4c(O)c(c(/C=N/N5CCN(C)CC5)c(O)c4c3C2=O)NC(=O)/C(C)=C\C=C\[C@H](C)[C@H](O)[C@@H](C)[C@@H](O)[C@@H](C)[C@H](OC(C)=O)[C@@H]1C` [Rifampin], the “Mouse Intravenous LD50” value is on record as 260 mg/kg. As for `NNC(=O)c1ccncc1` [Isoniazid], the “Mouse Intravenous LD50” value is on record as 149 mg/kg.
